Literature values in patent US20250049023A1, “FUNGICIDAL COMPOSITIONS” (SYNGENTA CROP PROTECTION AG, priority 2021, published 2025).

Tested on: Mycosphaerella graminicola (Septoria tritici)
Conditions: as disclosed in prior filings

In the case of `COc1ccnc(C(=O)N[C@@H](C)C(=O)O[C@@H](C)C(c2ccc(F)cc2)c2ccc(F)cc2)c1OC(C)=O` [Florylpicoxamid, (1S)-2,2-bis(4-fluorophenyl)-1-methylethyl N-{[3-(acetyloxy)-4-methoxy-2-pyridyl]carbonyl}-L-alaninate], the “control of wheat leaf blotch disease (in words)” value is given as “particularly effective”.
